According to US7365231B2, “Compound with antitumor activity and preparation method therefor” (National Taiwan University of Science & Technology, priority 2005, dated 2008):

Assays:
colon cancer cell lines = conditions: NCI Anticancer Drug Screen; cited from earlier work
[1] = test system: human colon cancer cells xenografts; conditions: cited from earlier work
human colon cancer cells = conditions: cited from earlier work
[2] = xenograft study; cited from earlier work
colon (Colo 205) cancer = conditions: Colo 205 in SCID mice; cited from earlier work
[3] = test system: human gastric (SC-M1) cancer; conditions: SC-M1 in SCID mice; cited from earlier work

1,6-bis(4-(4-amino-3-hydroxyphenoxy)phenyl)diamantane [DPD]
anticancer activity on colon cancer cell lines (colon cancer cell lines): marked anticancer activities
in vivo anticancer activity [1]: has in vivo anticancer activity
cell cycle arrest and differentiation (human colon cancer cells): induced G0/G1 arrest and differentiation
acute toxicity [2]: no obvious acute toxicity

dimethyladamantylmaleimide [DMAMI]
apoptosis and tumor growth (colon (Colo 205) cancer): induce apoptosis and inhibit the growth

Nc1ccc(Oc2ccccc2Oc2ccc(N)c(O)c2)cc1O [Example 10, 1,2-Bis(4-amino-3-hydroxyphenoxy)benzene]
melting point: > 180 °C (dec.)

O=C1C=CC(=O)N1C12CC3CC(CC(C3)C1)C2 [AMI, N-1-adamantylmaleimide]
apoptosis and tumor growth [3]: induce apoptosis and inhibit the growth

Nc1ccc(Oc2ccc(Oc3ccc(N)c(O)c3)cc2)cc1O [Example 8, 1,4-Bis(4-amino-3-hydroxyphenoxy)benzene]
melting point: > 220 °C (dec.)
